ChEMBL document CHEMBL5505999, “Discovery of anti-inflammatory agents from 3, 4-dihydronaphthalene-1(2H)-one derivatives by inhibiting NLRP3 inflammasome activation” (Eur J Med Chem, 2024)

Tests used:
[1] = Cytotoxicity against mouse RAW264.7 cells assessed as survival rate at 2.5 uM incubated overnight by CCK-8 assay relative to control; type: toxicity, cell-based; conditions: read-out: Survival
[2] = tested on: RAW264.7; test: Anti-inflammatory activity in mouse RAW264.7 cells assessed as inhibition of LPS-induced TNF-alpha production at 2.5 uM pretreated with compound for 2 hrs followed by LPS addition and measured after 22 hrs by ELISA relative to control; type: functional; conditions: time 24 hrs
[3] = tested on: RAW264.7; test: Anti-inflammatory activity in mouse RAW264.7 cells assessed as inhibition of LPS-induced IL-6 production at 2.5 uM pretreated with compound for 2 hrs followed by LPS addition and measured after 22 hrs by ELISA relative to control; type: functional; conditions: time 24 hrs
[4] = tested on: RAW264.7; test: Anti-inflammatory activity in mouse RAW264.7 cells assessed as inhibition of LPS-induced TNF-alpha production at 10 uM pretreated with compound for 2 hrs followed by LPS addition and measured after 22 hrs by ELISA relative to control; type: functional; conditions: time 24 hrs
[5] = tested on: RAW264.7; test: Anti-inflammatory activity in mouse RAW264.7 cells assessed as inhibition of LPS-induced IL-6 production at 10 uM pretreated with compound for 2 hrs followed by LPS addition and measured after 22 hrs by ELISA relative to control; type: functional; conditions: time 24 hrs

Structure (SMILES): CN1CCN(c2ccc(/C=C3\CCc4ccc(O)cc4C3=O)cc2)CC1
- viability at 2.5 µM [1]: 103%
- inhibition at 2.5 µM [2]: 41.1%
- inhibition at 2.5 µM [3]: 56.3%

Structure (SMILES): CN1CCN(c2ccc(/C=C3\CCc4ccc(Br)cc4C3=O)cn2)CC1
- viability at 2.5 µM [1]: 104%
- inhibition at 2.5 µM [2]: 51%
- inhibition at 2.5 µM [3]: 63.4%

Structure (SMILES): COc1ccc2c(c1)C(=O)/C(=C/c1ccc(N3CCN(C)CC3)cc1)CC2
- viability at 2.5 µM [1]: 98%
- inhibition at 2.5 µM [2]: 33.6%
- inhibition at 2.5 µM [3]: 50.1%

Structure (SMILES): O=C1/C(=C/c2ccc(N3CCOCC3)nc2)CCc2ccc(F)cc21
- viability at 2.5 µM [1]: 99.8%
- inhibition at 2.5 µM [2]: 23.8%
- inhibition at 2.5 µM [3]: 40.2%

Structure (SMILES): O=C1/C(=C/c2ccc(-n3ccnc3)cc2)CCc2ccc(F)cc21
- viability at 2.5 µM [1]: 98%
- inhibition at 2.5 µM [2]: 19%
- inhibition at 2.5 µM [3]: 34.3%

Structure (SMILES): CN1CCN(c2ccc(/C=C3\CCc4ccc(O)cc4C3=O)cn2)CC1
- viability at 2.5 µM [1]: 85.5%
- inhibition at 2.5 µM [2]: 55.9%
- inhibition at 2.5 µM [3]: 66.6%

Structure (SMILES): COc1ccc2c(c1)C(=O)/C(=C/c1ccc(N3CCN(C)CC3)cn1)CC2
- viability at 2.5 µM [1]: 89%
- inhibition at 2.5 µM [2]: 35.3%
- inhibition at 2.5 µM [3]: 51.6%

Structure (SMILES): CN1CCN(c2ccc(/C=C3\CCc4ccc(O)cc4C3=O)nc2)CC1
- viability at 2.5 µM [1]: 98.6%
- inhibition at 2.5 µM [2]: 41.6%
- inhibition at 2.5 µM [3]: 56.7%

Structure (SMILES): O=C1/C(=C/c2ccc(-n3ccnc3)cc2)CCc2ccc(Br)cc21
- viability at 2.5 µM [1]: 91.2%
- inhibition at 2.5 µM [2]: 39.8%
- inhibition at 2.5 µM [3]: 55.3%

Structure (SMILES): CN1CCN(c2ccc(/C=C3\CCc4ccc(F)cc4C3=O)nc2)CC1
- viability at 2.5 µM [1]: 93.5%
- inhibition at 2.5 µM [2]: 30.5%
- inhibition at 2.5 µM [3]: 47.2%

Structure (SMILES): O=C1/C(=C/c2ccc(N3CCOCC3)cc2)CCc2cc(F)ccc21
- viability at 2.5 µM [1]: 81.1%
- inhibition at 2.5 µM [2]: 32.1%
- inhibition at 2.5 µM [3]: 48.7%

Structure (SMILES): O=C1/C(=C/c2ccc(N3CCOCC3)cc2)CCc2ccc(F)cc21
- viability at 2.5 µM [1]: 82.7%
- inhibition at 2.5 µM [2]: 29.5%
- inhibition at 2.5 µM [3]: 46.2%

Structure (SMILES): COc1ccc2c(c1)CC/C(=C\c1ccc(N3CCOCC3)cc1)C2=O
- viability at 2.5 µM [1]: 89.3%
- inhibition at 2.5 µM [2]: 31.6%
- inhibition at 2.5 µM [3]: 53.1%

Structure (SMILES): CN1CCN(c2ccc(/C=C3\CCc4ccc(F)cc4C3=O)cc2)CC1
- viability at 2.5 µM [1]: 91.5%
- inhibition at 2.5 µM [2]: 37.3%
- inhibition at 2.5 µM [3]: 57.3%

Structure (SMILES): CN1CCN(c2ccc(/C=C3\CCc4cc(Br)ccc4C3=O)nc2)CC1
- viability at 2.5 µM [1]: 96.8%
- inhibition at 2.5 µM [2]: 40.6%
- inhibition at 2.5 µM [3]: 55.9%

Structure (SMILES): O=C1/C(=C/c2ccc(N3CCOCC3)nc2)CCc2cc(Br)ccc21
- viability at 2.5 µM [1]: 86.2%
- inhibition at 2.5 µM [2]: 31.4%
- inhibition at 2.5 µM [3]: 47.5%

Structure (SMILES): COc1ccc2c(c1)C(=O)/C(=C/c1ccc(N3CCOCC3)nc1)CC2
- viability at 2.5 µM [1]: 82.4%
- inhibition at 2.5 µM [2]: 27.6%
- inhibition at 2.5 µM [3]: 44.3%

Structure (SMILES): O=C1/C(=C/c2ccc(N3CCOCC3)nc2)CCc2ccc(Br)cc21
- viability at 2.5 µM [1]: 96.2%
- inhibition at 2.5 µM [2]: 23.8%
- inhibition at 2.5 µM [3]: 36.1%

Structure (SMILES): COc1ccc2c(c1)C(=O)/C(=C/c1ccc(-n3ccnc3)cc1)CC2
- viability at 2.5 µM [1]: 88.7%
- inhibition at 2.5 µM [2]: 39.8%
- inhibition at 2.5 µM [3]: 55.3%

Structure (SMILES): O=C1/C(=C/c2ccc(-n3ccnc3)cc2)CCc2ccc(O)cc21
- viability at 2.5 µM [1]: 87.1%
- inhibition at 2.5 µM [2]: 25.3%
- inhibition at 2.5 µM [3]: 50.2%

Structure (SMILES): COc1ccc2c(c1)C(=O)/C(=C/c1ccc(N3CCOCC3)cc1)CC2
- viability at 2.5 µM [1]: 82.2%
- inhibition at 2.5 µM [2]: 30.5%
- inhibition at 2.5 µM [3]: 47.2%

Structure (SMILES): O=C1/C(=C/c2ccc(-n3ccnc3)cc2)CCc2cc(F)ccc21
- viability at 2.5 µM [1]: 80.7%
- inhibition at 2.5 µM [2]: 39.4%
- inhibition at 2.5 µM [3]: 54.9%

Structure (SMILES): COc1ccc2c(c1)CC/C(=C\c1ccc(N3CCOCC3)nc1)C2=O
- viability at 2.5 µM [1]: 96%
- inhibition at 2.5 µM [2]: 45%
- inhibition at 2.5 µM [3]: 59.2%

Structure (SMILES): CN1CCN(c2ccc(/C=C3\CCc4cc(F)ccc4C3=O)cn2)CC1
- viability at 2.5 µM [1]: 98.2%
- inhibition at 2.5 µM [2]: 32.8%
- inhibition at 2.5 µM [3]: 49.3%

Structure (SMILES): CN1CCN(c2ccc(/C=C3\CCc4cc(F)ccc4C3=O)cc2)CC1
- viability at 2.5 µM [1]: 90.5%
- inhibition at 2.5 µM [2]: 37.1%
- inhibition at 2.5 µM [3]: 48.4%

Structure (SMILES): CN1CCN(c2ccc(/C=C3\CCc4ccc(F)cc4C3=O)cn2)CC1
- viability at 2.5 µM [1]: 88.7%
- inhibition at 2.5 µM [2]: 35.3%
- inhibition at 2.5 µM [3]: 51.6%

Structure (SMILES): O=C1/C(=C/c2ccc(N3CCOCC3)nc2)CCc2ccc(O)cc21
- viability at 2.5 µM [1]: 104%
- inhibition at 2.5 µM [2]: 30.8%
- inhibition at 2.5 µM [3]: 48%

Structure (SMILES): COc1ccc2c(c1)C(=O)/C(=C/c1ccc(N3CCN(C)CC3)nc1)CC2
- viability at 2.5 µM [1]: 84.9%
- inhibition at 2.5 µM [2]: 34.7%
- inhibition at 2.5 µM [3]: 51.1%

Structure (SMILES): S=C(S)N1CCCC1 [PYRROLIDINE DITHIOCARBAMATE]
- inhibition at 10 µM [4]: 36%
- inhibition at 10 µM [5]: 48%

Structure (SMILES): O=C1/C(=C/c2ccc(N3CCOCC3)cc2)CCc2ccc(O)cc21
- viability at 2.5 µM [1]: 81.6%
- inhibition at 2.5 µM [2]: 32.3%
- inhibition at 2.5 µM [3]: 48.9%

Structure (SMILES): CN1CCN(c2ccc(/C=C3\CCc4ccc(Br)cc4C3=O)cc2)CC1
- viability at 2.5 µM [1]: 116%
- inhibition at 2.5 µM [2]: 49.8%
- inhibition at 2.5 µM [3]: 62.6%

Structure (SMILES): COc1ccc2c(c1)CC/C(=C\c1ccc(-n3ccnc3)cc1)C2=O
- viability at 2.5 µM [1]: 92.8%
- inhibition at 2.5 µM [2]: 31.7%
- inhibition at 2.5 µM [3]: 48.2%

Structure (SMILES): CN1CCN(c2ccc(/C=C3\CCc4cc(Br)ccc4C3=O)cn2)CC1
- viability at 2.5 µM [1]: 87.8%
- inhibition at 2.5 µM [2]: 39%
- inhibition at 2.5 µM [3]: 54.7%

Structure (SMILES): COc1ccc2c(c1)CC/C(=C\c1ccc(N3CCN(C)CC3)cc1)C2=O
- viability at 2.5 µM [1]: 91.3%
- inhibition at 2.5 µM [2]: 34.6%
- inhibition at 2.5 µM [3]: 50.9%

Structure (SMILES): O=C1/C(=C/c2ccc(N3CCOCC3)cc2)CCc2cc(Br)ccc21
- viability at 2.5 µM [1]: 92.8%
- inhibition at 2.5 µM [2]: 29.6%
- inhibition at 2.5 µM [3]: 46.4%

Structure (SMILES): CN1CCN(c2ccc(/C=C3\CCc4cc(Br)ccc4C3=O)cc2)CC1
- viability at 2.5 µM [1]: 87%
- inhibition at 2.5 µM [2]: 42.4%
- inhibition at 2.5 µM [3]: 53.3%

Structure (SMILES): O=C1/C(=C/c2ccc(N3CCOCC3)cc2)CCc2ccc(Br)cc21
- viability at 2.5 µM [1]: 82.7%
- inhibition at 2.5 µM [2]: 22.4%
- inhibition at 2.5 µM [3]: 38.6%

Structure (SMILES): O=C1/C(=C/c2ccc(-n3ccnc3)cc2)CCc2cc(Br)ccc21
- viability at 2.5 µM [1]: 82.6%
- inhibition at 2.5 µM [2]: 32.4%
- inhibition at 2.5 µM [3]: 49%

Structure (SMILES): COc1ccc2c(c1)C(=O)/C(=C/c1ccc(OC)c(C(F)(F)F)c1)CC2
- viability at 2.5 µM [1]: 114%
- inhibition at 2.5 µM [2]: 51%
- inhibition at 2.5 µM [3]: 44.2%

Structure (SMILES): COc1ccc2c(c1)CC/C(=C\c1ccc(N3CCN(C)CC3)nc1)C2=O
- viability at 2.5 µM [1]: 88.9%
- inhibition at 2.5 µM [2]: 39.6%
- inhibition at 2.5 µM [3]: 55%

Structure (SMILES): O=C1/C(=C/c2ccc(N3CCOCC3)nc2)CCc2cc(F)ccc21
- viability at 2.5 µM [1]: 85.2%
- inhibition at 2.5 µM [2]: 31%
- inhibition at 2.5 µM [3]: 47.7%
